Measurements published in the supplement of paper PMC4862054.

Key:
Assay in all cases: normalised viability (% of control), CellTiter-Blue; higher = more viable cells (about 100 = DMSO control)
Conditions in all cases: incubation time: 72 h
[1] = test system: MDA-MB-453
How it was run: (§1)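 Compound dissolved in 5 µl medium was pre-loaded into 384-well plates, and breast cancer cell lines in 20 µl suspension were seeded on top and incubated 72 h. After adding 2.5 µl CellTiter-Blue reagent for 2 h at 37 °C, fluorescence was read at 560/590 nm. Plates were normalised to vehicle (100) and a positive kill control (0), with Z'-factor quality control. Each value is normalised viability at a single listed concentration from the series.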

[2] = test system: CAL-148
How it was run: as §1

[3] = test system: DU-4475
How it was run: as §1

[4] = test system: CAL-85-1
How it was run: as §1

[5] = test system: MDA-MB-453; remark: listed apart in the source
Description: (§2)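 DSRT, CellTiter-Blue viability, 72 h incubation. Signal is normalised to DMSO and benzethonium chloride controls. Value is the normalised response at dose 9.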

[6] = test system: HDQ-P1
Description: as §2

[7] = test system: CAL-148; remark: listed apart in the source
Description: as §2

[8] = test system: DU-4475; remark: listed apart in the source
Description: as §2

[9] = test system: CAL-85-1; remark: listed apart in the source
Description: as §2

[10] = test system: CAL-51
Description: as §2

[11] = test system: HCC1599
How it was run: as §1

[12] = test system: MDA-MB-231
How it was run: as §1

[13] = test system: BT-549
How it was run: as §1

[14] = test system: MDA-MB-453; remark: listed apart in the source
How it was run: as §1

[15] = test system: MDA-MB-468
How it was run: as §1

[16] = test system: HCC1937
How it was run: as §1

[17] = test system: DU-4475; remark: listed apart in the source
How it was run: as §1

[18] = test system: MFM-223
How it was run: as §1

[19] = test system: CAL-85-1; remark: listed apart in the source
How it was run: as §1

[20] = test system: CAL-120
How it was run: as §1

[21] = test system: SK-BR-3
How it was run: as §1

[22] = test system: Hs578T
How it was run: as §1

[23] = test system: BT-474
How it was run: as §1

[24] = test system: CAL-51; remark: listed apart in the source
How it was run: as §1

[25] = test system: MDA-MB-436
How it was run: as §1

[26] = test system: HCC1143
How it was run: as §1

COc1cc2c(Oc3ccc4[nH]c(C)cc4c3F)ncnc2cc1OCCCN1CCCC1 [Cediranib]
Conditions | normalised viability [%]
[1], 300 nM | 86.2
[2], 300 nM | 101
[3], 300 nM | 98.8
[4], 300 nM | 103
[5], 1000 nM | 77.9
[6], 1000 nM | 94.6
[7], 1000 nM | 113
[8], 1000 nM | 83.4
[9], 1000 nM | 102
[10], 1000 nM | 74.1
[11], 1 nM | 101
[11], 100 nM | 114
[11], 1000 nM | 76.7
[12], 1 nM | 84.7
[12], 100 nM | 83.7
[12], 1000 nM | 92
[13], 1 nM | 108
[13], 100 nM | 104
[13], 1000 nM | 70.8
[14], 0.3 nM | 85.7
[14], 3 nM | 97
[14], 10 nM | 84.7
[15], 1 nM | 92.5
[15], 100 nM | 89.7
[15], 1000 nM | 95.2
[16], 1 nM | 66.2
[16], 100 nM | 78.5
[16], 1000 nM | 83.4
[17], 0.3 nM | 103
[17], 3 nM | 80.4
[17], 10 nM | 87.3
[18], 1 nM | 99.9
[18], 100 nM | 87
[18], 1000 nM | 47.2
[19], 0.3 nM | 104
[19], 3 nM | 96.5
[19], 10 nM | 99.8
[20], 1 nM | 117
[20], 100 nM | 110
[20], 1000 nM | 81.4
[21], 1 nM | 100
[21], 100 nM | 95.7
[21], 1000 nM | 104
[22], 1 nM | 110
[22], 100 nM | 106
[22], 1000 nM | 92.2
[23], 1 nM | 109
[23], 100 nM | 101
[23], 1000 nM | 91.1
[24], 0.3 nM | 90.5
[24], 3 nM | 88.7
[24], 10 nM | 88.6
[25], 1 nM | 85.6
[25], 100 nM | 92
[25], 1000 nM | 91.8
[26], 1 nM | 128
[26], 100 nM | 120
[26], 1000 nM | 112

Cc1ccc(-c2cc(C(F)(F)F)nn2-c2ccc(S(N)(=O)=O)cc2)cc1 [Celecoxib]
Conditions | normalised viability [%]
[1], 3000 nM | 91.7
[2], 3000 nM | 89.3
[3], 3000 nM | 96.6
[4], 3000 nM | 77.6
[5], 10000 nM | 34
[6], 10000 nM | 80.3
[7], 10000 nM | 55.1
[8], 10000 nM | 68.5
[9], 10000 nM | 63.4
[10], 10000 nM | 90.6
[11], 10 nM | 99
[11], 1000 nM | 95.7
[11], 10000 nM | 65.6
[12], 10 nM | 96.2
[12], 1000 nM | 86.7
[12], 10000 nM | 99.6
[13], 10 nM | 86.6
[13], 1000 nM | 106
[13], 10000 nM | 78.4
[14], 3 nM | 111
[14], 30 nM | 97.5
[14], 100 nM | 103
[15], 10 nM | 96.6
[15], 1000 nM | 107
[15], 10000 nM | 95
[16], 10 nM | 85.3
[16], 1000 nM | 80.3
[16], 10000 nM | 79.4
[17], 3 nM | 83.8
[17], 30 nM | 93.1
[17], 100 nM | 106
[18], 10 nM | 95.9
[18], 1000 nM | 92.1
[18], 10000 nM | 86.3
[19], 3 nM | 91.6
[19], 30 nM | 75
[19], 100 nM | 76.7
[20], 10 nM | 94.5
[20], 1000 nM | 79.7
[20], 10000 nM | 81.9
[21], 10 nM | 87.6
[21], 1000 nM | 90.2
[21], 10000 nM | 79.7
[22], 10 nM | 113
[22], 1000 nM | 108
[22], 10000 nM | 92.6
[23], 10 nM | 111
[23], 1000 nM | 97.3
[23], 10000 nM | 105
[24], 3 nM | 99
[24], 30 nM | 98.3
[24], 100 nM | 94.4
[25], 10 nM | 99.3
[25], 1000 nM | 77.8
[25], 10000 nM | 80.1
[26], 10 nM | 90.3
[26], 1000 nM | 95.5
[26], 10000 nM | 86
